# Measurements taken from ChEMBL document CHEMBL3217461, “Synthesis of tetrazoleisoxazoline hybrids as a new class of tubulin polymerization inhibitors” (Medchemcomm, 2012).
# Activity calls are given as the source filed them. The calls are words filed in the database; no cut-off is given here.
# What was measured:
# A549 [1] = assay: Cytotoxicity against human A549 cells after 48 hrs by MTT assay; assay type: functional, cell-based; conditions: A549, 48 h
# MDA-MB-231 = assay: Cytotoxicity against human MDA-MB-231 cells after 48 hrs by MTT assay; assay type: functional, cell-based; conditions: MDA-MB-231, 48 h
# A549 [2] = assay: Cell cycle arrest in human A549 cells assessed as accumulation at G0 phase at 2 uM after 24 hrs using propidium iodide staining by flow cytometer analysis (reference value: 0.56%); assay type: functional
# A549 [3] = assay: Cell cycle arrest in human A549 cells assessed as accumulation at G1 phase at 2 uM after 24 hrs using propidium iodide staining by flow cytometer analysis (reference value: 80.03%); assay type: functional
# A549 [4] = assay: Cell cycle arrest in human A549 cells assessed as accumulation at S phase at 2 uM after 24 hrs using propidium iodide staining by flow cytometer analysis (reference value: 5.43%); assay type: functional
# A549 [5] = assay: Cell cycle arrest in human A549 cells assessed as accumulation at G2/M phase at 2 uM after 24 hrs using propidium iodide staining by flow cytometer analysis (reference value: 13.98%); assay type: functional
# Tubulin (Homo sapiens) [6] = biological target: T1, Tubulin (Homo sapiens) (UniProt P68371+Q9H4B7+P0DPH7+P68366+Q13509+Q71U36+P04350+Q3ZCM7+P07437+P68363+Q9BQE3+Q6PEY2+Q13885+Q9BVA1+Q9BUF5); assay: Inhibition of tubulin polymerization in human A549 cells assessed as microtubule network at 2 uM after 24 hrs by immunofluorescence microscopy analysis; assay type: cell-based
# Tubulin (Homo sapiens) [7] = biological target: T1, Tubulin (Homo sapiens); assay: Inhibition of gamma-tubulin in human A549 cells assessed as decrease in protein organization pattern at 2 uM after 24 hrs by immunofluorescence analysis; assay type: cell-based
# Tubulin (Homo sapiens) [8] = biological target: T1, Tubulin (Homo sapiens); assay: Inhibition of tubulin (unknown origin) at 2 uM after 30 to 60 mins by HTS assay; assay type: protein-complex assay
# Tubulin (Bos taurus) = Tubulin (Bos taurus) (UniProt Q6B856+Q862L2+Q862F3); assay: Displacement of [3H]-colchicine from purified bovine brain tubulin at 5 uM after 1 hr by scintillation proximity assay
# A549 [9] = assay: Induction of apoptosis in human A549 cells assessed as increase of caspase-3 expression at 2 uM after 2 hrs by Western blot analysis; assay type: functional, cell-based
inhibition (Tubulin (Homo sapiens) [6]),inhibition (Tubulin (Homo sapiens) [7]),inhibition (Tubulin (Homo sapiens) [8]),inhibition (Tubulin (Bos taurus)),SMILES,IC50 (A549 [1]),IC50 (MDA-MB-231),Activity (A549 [2]),Activity (A549 [3]),Activity (A549 [4]),Activity (A549 [5]),Activity (A549 [9])
Active,Active,Active,90%,COc1ccc(F)c(C2=NOC(COc3ccc(-c4nnnn4-c4cc(OC)c(OC)c(OC)c4)cc3N)C2)c1 (stereo unspecified),1510 nM,2830 nM,2.55%,10.23%,5.93%,81.29%,Active
,,,,COc1cc(-n2nnnc2-c2ccc(OCC3CC(c4ccc(OC)c(OC)c4OC)=NO3)c(N)c2)cc(OC)c1OC (stereo unspecified),2030 nM,3540 nM,1.08%,73.18%,5.4%,20.34%,
,,,,COc1cc(-n2nnnc2-c2ccc(OCC3CC(c4cccc(Cl)c4)=NO3)c(N)c2)cc(OC)c1OC (stereo unspecified),1340 nM,2180 nM,6.83%,49.34%,5.53%,38.3%,
,,,,COc1ccc(C2=NOC(COc3ccc(-c4nnnn4-c4cc(OC)c(OC)c(OC)c4)cc3N)C2)cc1N (stereo unspecified),2080 nM,3000 nM,1.68%,75.87%,5.42%,17.03%,
,,,,COc1ccc(OC)c(C2=NOC(COc3ccc(-c4nnnn4-c4cc(OC)c(OC)c(OC)c4)cc3N)C2)c1 (stereo unspecified),1930 nM,3500 nM,0.95%,75.39%,5.02%,18.63%,
,,,,COc1cc(C2=NOC(COc3ccc(-c4nnnn4-c4cc(OC)c(OC)c(OC)c4)cc3N)C2)cc(OC)c1OC (stereo unspecified),2060 nM,3230 nM,1.74%,72.62%,4.92%,20.72%,
,,,,COc1ccc(C2=NOC(COc3ccc(-c4nnnn4-c4cc(OC)c(OC)c(OC)c4)cc3N)C2)cc1OC (stereo unspecified),2520 nM,3570 nM,1.44%,73.08%,5.31%,20.18%,
,,,,COc1ccc(C2=NOC(COc3ccc(-c4nnnn4-c4cc(OC)c(OC)c(OC)c4)cc3N)C2)cc1[N+](=O)[O-] (stereo unspecified),2220 nM,3560 nM,1.84%,74.79%,5.29%,18.08%,
,,,,COc1cc(C2=NOC(COc3ccc(-c4nnnn4-c4cc(OC)c(OC)c(OC)c4)cc3N)C2)ccc1O (stereo unspecified),2010 nM,3620 nM,1.65%,70.71%,6.41%,21.18%,
,,,,COc1ccc(-c2nnnn2-c2cc(OC)c(OC)c(OC)c2)cc1N,2630 nM,3170 nM,1.05%,72.31%,3.47%,23.1%,
,,,,COc1ccc(C2=NOC(COc3ccc(-c4nnnn4-c4cc(OC)c(OC)c(OC)c4)cc3N)C2)cc1O (stereo unspecified),2130 nM,3380 nM,2.05%,69.87%,6.27%,21.81%,
Active,Active,Active,92%,COc1cc(-n2nnnc2-c2ccc(OCC3CC(c4ccccc4F)=NO3)c(N)c2)cc(OC)c1OC (stereo unspecified),1490 nM,2400 nM,3.19%,11.34%,6.04%,79.42%,Active
,,,,COc1cc(-n2nnnc2-c2ccc(OCC3CC(c4ccc(C(F)(F)F)cc4)=NO3)c(N)c2)cc(OC)c1OC (stereo unspecified),1220 nM,1750 nM,7.14%,43.08%,4.17%,45.61%,
,,,20%,CC(=O)O[C@H]1C(=O)[C@@]2(C)[C@H]([C@H](OC(=O)c3ccccc3)[C@]3(O)C[C@H](OC(=O)[C@H](O)[C@@H](NC(=O)c4ccccc4)c4ccccc4)C(C)=C1C3(C)C)[C@]1(OC(C)=O)CO[C@@H]1C[C@@H]2O,,,,,,,
,,,,COc1cc(C2=NOC(c3cc(OC)c(OC)c(OC)c3)C2)ccc1O (stereo unspecified),2600 nM,3600 nM,1.42%,65.98%,4.25%,27.86%,
,,,,COc1ccc(/C=C\c2cc(OC)c(OC)c(OC)c2)cc1O [COMBRETASTATIN A4],550 nM,100 nM,1.79%,7.47%,6.03%,84.71%,
